The results in this text go back to patent publication US8623908B2, “Use of tellurium compounds for inhibition of interleukin-converting enzyme” (Biomas Ltd., priority 2004, dated 2014).

Assay [1] concerns IL-18 secretion by human PBMC. The experiment in a line: Role of IFN-γ: IL-18 inhibition in PBMC with IFN-γ neutralizing antibody. The format is cell-based. The following applies: anti IFN-γ antibody 0.1 μg/ml 2 hours before AS101 0.5 μg/ml; SAC; 24 hours; FIG. 6. The method, then: (§1) The R&D Systems (Minneapolis, Minn.) IL-18 and IL-1β ELISA kits were used for the quantitative measurement of these cytokines either in supernatants or in mice sera.
In order to investigate the possibility that enhancement of IFN-γ levels by AS101 might have a synergistic effect on IL-18 inhibition, rhIFN-γ neutralizing antibody (0.1 μg/ml) was delivered to PBMC (2.5×10^6 cells/ml) 2 hours before AS101 (0.5 μg/ml). SAC (10^−3 v/v) was added 1 hour following AS101. Supernatants were collected after 24 hours and evaluated for IL-18 levels.

Assay [2] concerns IL-1β secretion by human PBMC. The assay can be described thus: SAC-induced secretion of IL-1β by PBMC (ELISA). The format is cell-based. The method, then:
Human peripheral blood mononuclear cells (PBMC) were isolated from randomly selected healthy donors by Ficoll-Hypaque (Pharmacia, Piscataway, N.J.) density-gradient centrifugation. PBMC were adjusted to 2.5×10^6 cells/ml and cultured in enriched RPMI 1640 medium (Biological industries, Kibbutz Beit Haemek, Israel) with 10% FCS (Biological industries) at 37° C. and 7% CO2.
Cells were first treated with various concentrations of AS101 and after 1 hour SAC was added. After 24 hours, supernatants were collected and evaluated for cytokine content. Viability at the end of these experiments, as assessed by tryptan blue exclusion method, was always found to be >95%.
as §1
PBMC (2.5×10^6 cells/ml) were treated with various concentrations of AS101 and after 1 hour were stimulated with SAC (10^−3 V/V). Results represent means±SE of three experiments **p<0.05 decrease vs SAC; *p<0.01 decrease vs SAC. Optimal concentration of SAC for cytokine secretion stimulation was 10^−3 v/v (data not shown).
On the technique in general: An ELISA detects its analyte on a solid surface through an enzyme-linked reagent.

Assay [3] has as its system IL-18 mRNA in human HaCat keratinocytes. The assay can be described thus: IL-18 mRNA levels in HaCat cells (RT-PCR). In kind it is cell-based. Particulars: AS101 1 μg/ml preincubated 2 hours, FIG. 4b. The protocol:
Total RNA was prepared from treated or non treated human keratinocytes by using Tri-reagent (Sigma Aldrich, Rehovot, Israel). Oligo(dt) primed cDNA was synthesized using 2 μg of total RNA. mRNA/cDNA specific cytokine primer pairs were designed and PCR was performed using the following primer pairs (5 μM each): IL-18 (product 558 bp): 178-201 [5′-[…]-3′], 735-759 [5′-[…]-3′]. Cycling conditions were 95° C., 4 minutes; 94° C., 1 minute, 65° C., 1 minute; and 72° C., 1 minute for 29 cycles. GPDH (glyceraldehyde-phosphate-dehydrogenase, product 500 bp) was used as a control: [5′-[…]-3′],[5′-[…]-3′]. The amplified products were visualized using ethidium bromide staining.
Changes at the IL-18 mRNA level were studied when keratinocytes were pretreated with AS101 (1 μg/ml) using optimal concentrations of PMA (10 ng/ml) and LPS (50 ng/ml). Total RNA was isolated from whole cell lysates. GAPDH was used as internal control. Cultured keratinocytes (1×10^6 cells/ml) were either untreated or treated with PMA at 5 ng/ml and 10 ng/ml (line 2 and 3 respectively) and with LPS at 40 ng/ml and 50 ng/ml (line 4 and 5 respectively).
PCR products were amplified for 29 cycles.

For a further assay, the system named is LPS-induced septic mice. The experiment in a line: Survival of LPS-induced septic mice. The format is in vivo. The protocol:
For serum cytokine evaluation, PBS or AS101 was injected intraperitoneally (i.p.) 2 hours following LPS treatment. For survival experiments AS101 was injected i.p. daily at various concentrations starting 1 hour and up to 24 hours following LPS until the end of the experiment.
Data are presented as mean±SE. For comparisons of means of the various groups, the pairwise t test was used. Survival curves were statistically analyzed by comparing the cumulative percentage of survival using the Gehan-Wilcoxon test.
In order to study the relationship between the above in vitro and in vivo results and the effect of AS101 on survival of mice following induction of sepsis, AS101 at a concentration of 10 μg/mouse was injected into LPS-induced septic mice at various time points after LPS (0.35 mg/mouse) treatment. Survival was monitored for 9 days.

Assay [4] deals with active form of IL-18 in human HaCat keratinocytes. The experiment in a line: Western blot of intracellular active form of IL-18 in HaCat keratinocytes. The format is cell-based. The following applies: AS101 1 μg/ml preincubated 2 hours, FIG. 3. The method, then:
Human HaCat keratinocytes were adjusted to 1×10^6 cells/ml and cultured at 37° C. and 7% CO2 in enriched Dulbecco's modified Eagle's medium (DMEM)(Biological industries, Kibbutz Beit Haemek, Israel), supplemented with 10% FCS (Biological industries).
Total cell extracts were prepared by suspension in ice-cold lysis buffer containing 50 mM Tris (pH 8.0), 150 mM NaCl, 1% NP-40, 0.1% SDS, 5 mM EDTA, 0.2 mM PMSF, 50 mM NaF, […] sodium vanadate, […]. Cell lysates were boiled for 5 min and electrophoresed on 15% SDS-PAGE and were then blotted with monoclonal IL-18 antibodies (R&D Systems, Minneapolis, Minn.). Blots were developed using horseradish peroxidase-conjugated secondary antibodies and the ECL detection system (Amersham Pharmacia Biotech).
IL-18 is […] produced by keratinocytes after treatment with LPS or PMA. In order to determine whether the inhibitory effect of AS101 on the formation of the active form of IL-18 is consistent and will repeat itself in another type of cell culture, Western Blot analysis of total cellular proteins from human HaCat keratinocytes was performed using anti-IL-18 antibodies. […]
Cultured keratinocytes (1×10^6 cells/ml) were preincubated for 2 hours with AS101 (1 μg/ml) and then treated with PMA or LPS. Expression of IL-18 was assessed by WB analysis while α-tubulin was used as internal control. […]
In general terms: A western blot detects proteins with antibodies after separation by electrophoresis.

A value given as a limit tells only on which side of the number the result lay.

For the compound `Cl[TeH]1(Cl)(Cl)OCCO1` [AS101, ammonium trichloro(dioxyethylene-O,O′)tellurate], the “IL-18 inhibition after neutralization of IFN-γ” value in assay [1] is on record as “does not abrogate IL-18 inhibition”. In addition, the “SAC-induced secretion levels of IL-1β” value in assay [2] (AS101 1 hour before SAC 10^-3 v/v, after 24 hours, FIG. 2b) is given as “decrease SAC-induced secretion levels”. Further, in assay [2] (SAC, 24 hours), the “concentration from which the decrease in IL-1β secretion is significant (p<0.05)” value was ≥ 0.5 µg/mL. In addition, the “IL-18 mRNA levels” value in assay [3] (then LPS 50 ng/ml) and in assay [3] (then PMA 10 ng/ml) was “Changes in mRNA levels were not detected” throughout. Besides, the “effect on survival of septic mice” value with LPS-induced septic mice (AS101 10 μg/mouse i.p. daily, injected after LPS 0.35 mg/mouse, survival monitored 9 days, FIG. 8) was “beneficial effect”. Besides, the “optimal dose for survival” value in the assay on LPS-induced septic mice (injected 6 hours following LPS and thereafter every day) stood at 10 μg/mouse. Further, the “amounts of the active form of IL-18” value in assay [4] (then LPS 50 ng/ml) and in assay [4] (then PMA 10 ng/ml) was “produced a decrease in the amounts of the active form of IL-18” each time.
